Starred links: 1 amine or outer side, 2 acyl side, 3 side chain; linkers in the order of their positions; H or OH if unused. Positions of bridges follow the written chain, without caps; N, C: chain ends. Non-standard residues stand in square brackets, D forms with d. Residues, ends and D or L forms follow the SMILES beside them. Groups on a side chain read outwards from the residue. *: point of attachment. Ala(piperidin-4-yl) = O=C([C@H](CC1CCN([*:3])CC1)N[*:1])[*:2]; DOTA = O=C(O)CN1CCN(CC(=O)O)CCN(CC(=O)*)CCN(CC(=O)O)CC1; Trp(5-F) = N[C@@H](Cc1c[nH]c2ccc(F)cc12)C(=O)O; γGlu = O=C(O)[C@H](CCC(=O)[*:2])N[*:1]; Ala(4-THP) = N[C@@H](CC1CCOCC1)C(=O)O; Val(3-OH) = CC(C)(O)[C@H](N)C(=O)O; PEG4 = NCCOCCOCCOCCOCCC(=O)O; Tle = CC(C)(C)[C@H](N)C(=O)O; hLeu = CC(C)CC[C@H](N)C(=O)O; hSer = N[C@@H](CCO)C(=O)O; Aze = O=C(O)[C@@H]1CCN1; Dap = NC[C@H](N)C(=O)O; PEG1 = NCCOCCC(=O)O; AEA = NCCOCC(=O)O; Sar = CNCC(=O)O
Target: T1, human 4lg B7-H3 (Homo sapiens, UniProt Q5ZPR3)
T1 sequence (Q5ZPR3 29-534): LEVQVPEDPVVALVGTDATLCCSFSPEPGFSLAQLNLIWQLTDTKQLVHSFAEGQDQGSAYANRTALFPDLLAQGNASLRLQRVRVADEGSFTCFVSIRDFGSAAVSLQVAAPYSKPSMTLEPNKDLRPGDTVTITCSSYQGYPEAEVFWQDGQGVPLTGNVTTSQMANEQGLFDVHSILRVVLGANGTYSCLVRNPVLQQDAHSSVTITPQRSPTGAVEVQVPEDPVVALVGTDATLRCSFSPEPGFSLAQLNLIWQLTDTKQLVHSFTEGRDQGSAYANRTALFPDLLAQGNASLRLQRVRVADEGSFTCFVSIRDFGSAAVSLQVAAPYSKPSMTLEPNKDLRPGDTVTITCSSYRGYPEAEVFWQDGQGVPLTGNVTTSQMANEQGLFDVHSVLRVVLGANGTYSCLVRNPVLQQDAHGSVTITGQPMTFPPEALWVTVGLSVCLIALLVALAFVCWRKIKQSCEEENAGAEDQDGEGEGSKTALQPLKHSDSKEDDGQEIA
Assay: Affinity determination by surface plasmon resonance (SPR) to 4Ig B7-H3
Conditions: SPR KD—37° C., 4Ig B7-H3; 37° C. flow cell temperature

Compound | Kd
CC(=O)N[C@@H](CCC(C)C)C(=O)N[C@@H](Cc1ccc(O)cc1)C(=O)N[C@H]1CSSC[C@@H](C(=O)N[C@@H](Cc2c[nH]c3ccc(F)cc23)C(=O)N[C@@H](Cc2ccccc2)C(=O)N[C@H](C(=O)N[C@H](CCCCNC(=O)CN2CCN(CC(=O)O)CCN(CC(=O)O)CCN(CC(=O)O)CC2)C(=O)O)C(C)(C)O)NC(=O)[C@H](Cc2ccc(O)cc2)NC(=O)[C@H](C(C)C)NC(=O)[C@H](CC(=O)O)NC(=O)[C@H](CC2CCOCC2)NC(=O)[C@H](CCCCN)NC(=O)CNC(=O)[C@H]([C@@H](C)O)NC1=O [compound 370, Ac-hLeu-Y-C-Thr-G-K-ThpA-D-V-Y-C-5FW-F-hydroxyVal-dLys(DOTA)-COOH] (Ac-[hLeu]YCTGK[Ala(4-THP)]DVYC[Trp(5-F)]F[Val(3-OH)][dK](DOTA)-OH; disulfide 3-11) | 1 to 10 nM
CC(=O)N[C@@H](CCC(C)C)C(=O)N[C@@H](Cc1ccc(O)cc1)C(=O)N[C@H]1CSSC[C@@H](C(=O)N[C@@H](Cc2c[nH]c3ccc(F)cc23)C(=O)N[C@@H](Cc2ccccc2)C(=O)N[C@H](C(=O)N[C@H](CCCCNC(=O)CN2CCN(CC(=O)O)CCN(CC(=O)O)CCN(CC(=O)O)CC2)C(=O)O)C(C)(C)O)NC(=O)[C@H](Cc2ccc(O)cc2)NC(=O)[C@H](C(C)C)NC(=O)[C@H](CC(=O)O)NC(=O)[C@H](CC2CCOCC2)NC(=O)[C@H](CN)NC(=O)CNC(=O)[C@H](C(C)(C)C)NC1=O [compound 372, Ac-hLeu-Y-C-Tbg-G-Dap-ThpA-D-V-Y-C-5FW-F-hydroxyVal-dLys(DOTA)-COOH] (Ac-[hLeu]YC[Tle]G[Dap][Ala(4-THP)]DVYC[Trp(5-F)]F[Val(3-OH)][dK](DOTA)-OH; disulfide 3-11) | < 1 nM
CC(=O)N[C@@H](CCC(C)C)C(=O)N[C@@H](Cc1ccc(O)cc1)C(=O)N[C@H]1CSSC[C@@H](C(=O)N[C@@H](Cc2c[nH]c3ccc(F)cc23)C(=O)N[C@@H](Cc2ccccc2)C(=O)N[C@H](C(=O)N[C@H](CCCCNC(=O)CN2CCN(CC(=O)O)CCN(CC(=O)O)CCN(CC(=O)O)CC2)C(=O)O)C(C)(C)O)NC(=O)[C@H](Cc2ccc(O)cc2)NC(=O)[C@H](CCO)NC(=O)[C@H](CC(=O)O)NC(=O)[C@H](CC2CCOCC2)NC(=O)[C@H](CCCCN)NC(=O)CNC(=O)[C@H](C(C)(C)C)NC1=O [compound 373, Ac-hLeu-Y-C-Tbg-G-K-ThpA-D-hSer-Y-C-5FW-F-hydroxyVal-dLys(DOTA)-COOH] (Ac-[hLeu]YC[Tle]GK[Ala(4-THP)]D[hSer]YC[Trp(5-F)]F[Val(3-OH)][dK](DOTA)-OH; disulfide 3-11) | 1 to 10 nM
CC(=O)N[C@@H](CCC(C)C)C(=O)N[C@@H](Cc1ccc(O)cc1)C(=O)N[C@H]1CSSC[C@@H](C(=O)N[C@@H](Cc2c[nH]c3ccc(F)cc23)C(=O)N[C@@H](Cc2ccccc2)C(=O)N[C@H](C(=O)N[C@H](CCCCNC(=O)CN2CCN(CC(=O)O)CCN(CC(=O)O)CCN(CC(=O)O)CC2)C(=O)O)C(C)(C)O)NC(=O)[C@H](Cc2ccc(O)cc2)NC(=O)[C@H](C(C)C)NC(=O)[C@H](CC(=O)O)NC(=O)[C@H](CC2CCOCC2)NC(=O)[C@@H]2CCN2C(=O)CNC(=O)[C@H](C(C)(C)C)NC1=O [compound 375, Ac-hLeu-Y-C-Tbg-G-Aze-ThpA-D-V-Y-C-5FW-F-hydroxyVal-dLys(DOTA)-COOH] (Ac-[hLeu]YC[Tle]G[Aze][Ala(4-THP)]DVYC[Trp(5-F)]F[Val(3-OH)][dK](DOTA)-OH; disulfide 3-11) | 1 to 10 nM
CC(=O)N[C@@H](CCC(C)C)C(=O)N[C@@H](Cc1ccc(O)cc1)C(=O)N[C@H]1CSSC[C@@H](C(=O)N[C@@H](Cc2c[nH]c3ccc(F)cc23)C(=O)N[C@@H](Cc2ccccc2)C(=O)N[C@H](C(=O)N[C@H](CCCCNC(=O)CN2CCN(CC(=O)O)CCN(CC(=O)O)CCN(CC(=O)O)CC2)C(=O)O)C(C)(C)O)NC(=O)[C@H](Cc2ccc(O)cc2)NC(=O)[C@H]([C@@H](C)O)NC(=O)[C@H](CC(=O)O)NC(=O)[C@H](CC2CCOCC2)NC(=O)[C@H](CCCCN)NC(=O)CNC(=O)[C@H](C(C)(C)C)NC1=O [compound 377, Ac-hLeu-Y-C-Tbg-G-K-ThpA-D-Thr-Y-C-5FW-F-hydroxyVal-dLys(DOTA)-COOH] (Ac-[hLeu]YC[Tle]GK[Ala(4-THP)]DTYC[Trp(5-F)]F[Val(3-OH)][dK](DOTA)-OH; disulfide 3-11) | 10 to 100 nM
CC(=O)N[C@@H](CCC(C)C)C(=O)N[C@@H](Cc1ccc(O)cc1)C(=O)N[C@H]1CSSC[C@@H](C(=O)N[C@@H](Cc2c[nH]c3ccc(F)cc23)C(=O)N[C@@H](Cc2ccccc2)C(=O)N[C@H](C(=O)N[C@H](CCCCNC(=O)CN2CCN(CC(=O)O)CCN(CC(=O)O)CCN(CC(=O)O)CC2)C(=O)O)C(C)(C)O)NC(=O)[C@H](Cc2ccc(O)cc2)NC(=O)[C@H](CO)NC(=O)[C@H](CC(=O)O)NC(=O)[C@H](CC2CCOCC2)NC(=O)[C@H](CCCCN)NC(=O)CNC(=O)[C@H](C(C)(C)C)NC1=O [compound 378, Ac-hLeu-Y-C-Tbg-G-K-ThpA-D-Ser-Y-C-5FW-F-hydroxyVal-dLys(DOTA)-COOH] (Ac-[hLeu]YC[Tle]GK[Ala(4-THP)]DSYC[Trp(5-F)]F[Val(3-OH)][dK](DOTA)-OH; disulfide 3-11) | 100 to 300 nM
CC(=O)N[C@@H](CCC(C)C)C(=O)N[C@@H](Cc1ccc(O)cc1)C(=O)N[C@H]1CSSC[C@@H](C(=O)N[C@@H](Cc2c[nH]c3ccc(F)cc23)C(=O)N[C@@H](Cc2ccccc2)C(=O)N[C@H](C(N)=O)C(C)(C)O)NC(=O)[C@H](Cc2ccc(O)cc2)NC(=O)[C@H](C(C)C)NC(=O)[C@H](CC(=O)O)NC(=O)[C@H](CC2CCOCC2)NC(=O)[C@H](CC2CCN(C(=O)CCOCCOCCOCCOCCNC(=O)CN3CCN(CC(=O)O)CCN(CC(=O)O)CCN(CC(=O)O)CC3)CC2)NC(=O)CNC(=O)[C@H](C(C)(C)C)NC1=O [compound 382, Ac-hLeu-Y-C-Tbg-G-Pip(PEG4-DOTA)Ala-ThpA-D-V-Y-C-5FW-F-hydroxyVal-CONH2] (Ac-[hLeu]YC[Tle]G[Ala(piperidin-4-yl)]([PEG4-DOTA])[Ala(4-THP)]DVYC[Trp(5-F)]F[Val(3-OH)]-NH2; disulfide 3-11) | 1 to 10 nM
CC(=O)N[C@@H](CCC(C)C)C(=O)N[C@@H](Cc1ccc(O)cc1)C(=O)N[C@H]1CSSC[C@@H](C(=O)N[C@@H](Cc2c[nH]c3ccc(F)cc23)C(=O)N[C@@H](Cc2ccccc2)C(=O)N[C@H](C(=O)N[C@H](CCCCNC(=O)CN2CCN(CC(=O)O)CCN(CC(=O)O)CCN(CC(=O)O)CC2)C(=O)O)C(C)(C)O)NC(=O)[C@H](Cc2ccc(O)cc2)NC(=O)[C@H](C(C)C)NC(=O)[C@H](CC(=O)O)NC(=O)[C@H](CC2CCOCC2)NC(=O)[C@H](CCCCN)NC(=O)CN(C)C(=O)[C@H]([C@@H](C)O)NC1=O [compound 386, Ac-hLeu-Y-C-Thr-Sar-K-ThpA-D-V-Y-C-5FW-F-hydroxyVal-dLys(DOTA)-COOH] (Ac-[hLeu]YCT[Sar]K[Ala(4-THP)]DVYC[Trp(5-F)]F[Val(3-OH)][dK](DOTA)-OH; disulfide 3-11) | 1 to 10 nM
CC(C)CC[C@H](NC(=O)COCCNC(=O)[C@H](CCC(=O)O)NC(=O)CN1CCN(CC(=O)O)CCN(CC(=O)O)CCN(CC(=O)O)CC1)C(=O)N[C@@H](Cc1ccc(O)cc1)C(=O)N[C@H]1CSSC[C@@H](C(=O)N[C@@H](Cc2c[nH]c3ccc(F)cc23)C(=O)N[C@@H](Cc2ccccc2)C(=O)N[C@H](C(N)=O)C(C)(C)O)NC(=O)[C@H](Cc2ccc(O)cc2)NC(=O)[C@H](C(C)C)NC(=O)[C@H](CC(=O)O)NC(=O)[C@H](CC2CCOCC2)NC(=O)[C@H](CCCCN)NC(=O)CNC(=O)[C@H](C(C)(C)C)NC1=O [compound 392, DOTA-Glu-AEA-hLeu-Y-C-Tbg-G-K-ThpA-D-V-Y-C-5FW-F-hydroxyVal-CONH2] ({DOTA}-E[AEA][hLeu]YC[Tle]GK[Ala(4-THP)]DVYC[Trp(5-F)]F[Val(3-OH)]-NH2; disulfide 5-13) | 1 to 10 nM
CC(C)CC[C@H](NC(=O)COCCNC(=O)CC[C@H](NC(=O)CN1CCN(CC(=O)O)CCN(CC(=O)O)CCN(CC(=O)O)CC1)C(=O)O)C(=O)N[C@@H](Cc1ccc(O)cc1)C(=O)N[C@H]1CSSC[C@@H](C(=O)N[C@@H](Cc2c[nH]c3ccc(F)cc23)C(=O)N[C@@H](Cc2ccccc2)C(=O)N[C@H](C(N)=O)C(C)(C)O)NC(=O)[C@H](Cc2ccc(O)cc2)NC(=O)[C@H](C(C)C)NC(=O)[C@H](CC(=O)O)NC(=O)[C@H](CC2CCOCC2)NC(=O)[C@H](CCCCN)NC(=O)CNC(=O)[C@H](C(C)(C)C)NC1=O [compound 393, DOTA-gE-AEA-hLeu-Y-C-Tbg-G-K-ThpA-D-V-Y-C-5FW-F-hydroxyVal-CONH2] ({DOTA-γGlu-AEA}-[hLeu]YC[Tle]GK[Ala(4-THP)]DVYC[Trp(5-F)]F[Val(3-OH)]-NH2; disulfide 3-11) | 1 to 10 nM
CC(C)CC[C@H](NC(=O)CCOCCNC(=O)[C@H](CCC(=O)O)NC(=O)CN1CCN(CC(=O)O)CCN(CC(=O)O)CCN(CC(=O)O)CC1)C(=O)N[C@@H](Cc1ccc(O)cc1)C(=O)N[C@H]1CSSC[C@@H](C(=O)N[C@@H](Cc2c[nH]c3ccc(F)cc23)C(=O)N[C@@H](Cc2ccccc2)C(=O)N[C@H](C(N)=O)C(C)(C)O)NC(=O)[C@H](Cc2ccc(O)cc2)NC(=O)[C@H](C(C)C)NC(=O)[C@H](CC(=O)O)NC(=O)[C@H](CC2CCOCC2)NC(=O)[C@H](CCCCN)NC(=O)CNC(=O)[C@H](C(C)(C)C)NC1=O [compound 394, DOTA-Glu-PEG1-hLeu-Y-C-Tbg-G-K-ThpA-D-V-Y-C-5FW-F-hydroxyVal-CONH2] ({DOTA}-E[PEG1][hLeu]YC[Tle]GK[Ala(4-THP)]DVYC[Trp(5-F)]F[Val(3-OH)]-NH2; disulfide 5-13) | 1 to 10 nM

Source: US20250296959A1, “B7-H3 TARGETING PEPTIDES AND CONSTRUCTS THEREOF” (Mariana Oncology Inc., priority 2024, published 2025)
